Two compounds from US12252524B2, “GIP/GLP1 co-agonist compounds” (Eli Lilly and Company, priority 2018, dated 2025) can be followed below.

In general, EC50 refers to the concentration giving half of the maximal effect. What is called Ki is the dissociation constant of the complex between target and ligand, obtained from inhibition or displacement.

Each structure is given as a SMILES string. Numbered stars: 1 amine (or outer) side, 2 acyl side, 3 side chain; on linkers, the order of the positions; unused ones are H or OH. Square brackets hold non-standard residues; d marks the D form. Side chains are listed from the residue outwards. Peptide text beside a SMILES is read from it. * marks the point of attachment. C20 diacid = O=C(O)CCCCCCCCCCCCCCCCCCC(=O)*; C18 diacid = O=C(O)CCCCCCCCCCCCCCCCC(=O)*; γGlu = O=C(O)[C@H](CCC(=O)[*:2])N[*:1]; αMeY = C[C@](N)(Cc1ccc(O)cc1)C(=O)O; αMeL = CC(C)C[C@](C)(N)C(=O)O; AEEA = NCCOCCOCC(=O)O; Aib = CC(C)(N)C(=O)O

Assay [1] has as its target T1, human GLP-1R (Homo sapiens, UniProt P43220). The experiment in a line: GLP-1R CHO cell β-arrestin recruitment assay. The assay is classed as cell-based. The arrangement: host or cells: CHO-K1 PathHunter cells, assay-ready frozen. From the text: Activated G-protein coupled receptors can interact with the β-arrestin family of signalling proteins. […] CHO-K1 cells expressing Pro-Link-tagged Human GLP-1R and enzyme-acceptor-tagged β-arrestin-2 may be obtained from DiscoveRx and prepared as assay-ready frozen cells. Test peptides are solubilized in DMSO and serial dilutions are perfomed using the Echo acoustic dispenser (LabCyte). Assay media is the PathHunter Cell Assay Buffer (DiscoveRx) containing 0.1% w/v hydrolyzed Casein (Sigma). […] Plates are incubated for 90 minutes in a 37′C/5% C02 incubator and 10 ul of PathHunter detection reagent is added (DiscoveRx) and plates are incubated at room temperature for 60 minutes. Luminescence signal is measured. Peptide concentration-response curves fit to a four-parameter logistic model to calculate potency as an EC50.
(Arrestin recruitment assays detect the binding of arrestin to an activated receptor.)

Assay [2] has as its target T1, human GLP-1R. In words: GLP-1R HEK293 cell membrane [35S]GTPγS binding assay. The following applies: HEK293 cell membranes expressing human GLP-1R, [35S]GTPγS binding; read-out: hGLP1R GTPgS Rel EC50 nM (SEM, n). On the set-up: expressed in transfected cells; host or cells: HEK293 cells expressing human GLP-1R; membranes. The class given is biochemical. A digest of the protocol: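 Membranes from HEK293 cells expressing the receptor incubated with peptide and […] [35S]GTPγS in HEPES pH 7.4 buffer with NaCl, MgCl2, saponin and BSA, 30 min at room temperature. Gαs-bound label captured by anti-Gαs antibody/SPA beads and counted; EC50 from four-parameter logistic fit.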
On the technique in general: GTPγS is a poorly hydrolysed GTP analogue; its binding reports G protein activation.

For assay [3], the target named is T2, human Gcg receptor (Homo sapiens, UniProt P47871).
T2 construct: expressed in transfected cells; crude membranes
T2 sequence (P47871 26-477): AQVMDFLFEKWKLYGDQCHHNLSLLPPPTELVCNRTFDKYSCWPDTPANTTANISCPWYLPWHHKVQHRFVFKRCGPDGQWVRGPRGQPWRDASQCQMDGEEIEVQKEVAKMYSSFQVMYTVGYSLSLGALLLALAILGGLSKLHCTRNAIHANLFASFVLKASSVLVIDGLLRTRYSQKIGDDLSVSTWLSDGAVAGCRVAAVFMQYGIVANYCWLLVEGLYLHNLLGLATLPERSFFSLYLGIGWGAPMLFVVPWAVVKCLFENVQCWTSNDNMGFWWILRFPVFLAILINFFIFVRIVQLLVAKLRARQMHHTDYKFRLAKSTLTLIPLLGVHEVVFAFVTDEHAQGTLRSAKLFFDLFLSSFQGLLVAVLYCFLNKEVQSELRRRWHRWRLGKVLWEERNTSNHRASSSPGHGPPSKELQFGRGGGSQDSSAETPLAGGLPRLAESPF
The experiment in a line: [125I]-Glucagon binding (SPA), human Gcg receptor. The following applies: read-out: hGLcgR Ki, nM (SEM, n). The gist of the method: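 Crude membranes from cells expressing the receptor, prepared by hypotonic lysis in 50 mM Tris HCl pH 7.5 with protease inhibitors, homogenization and differential centrifugation, were used in a WGA-bead SPA. Binding buffer: 25 mM HEPES pH 7.4, 2.5 mM CaCl2, 1 mM MgCl2, bacitracin, Tween-20.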

Assay [4] addresses T3, human GIP receptor (Homo sapiens, UniProt P48546).
T3 construct: expressed in transfected cells; crude membranes
T3 sequence (P48546 22-466): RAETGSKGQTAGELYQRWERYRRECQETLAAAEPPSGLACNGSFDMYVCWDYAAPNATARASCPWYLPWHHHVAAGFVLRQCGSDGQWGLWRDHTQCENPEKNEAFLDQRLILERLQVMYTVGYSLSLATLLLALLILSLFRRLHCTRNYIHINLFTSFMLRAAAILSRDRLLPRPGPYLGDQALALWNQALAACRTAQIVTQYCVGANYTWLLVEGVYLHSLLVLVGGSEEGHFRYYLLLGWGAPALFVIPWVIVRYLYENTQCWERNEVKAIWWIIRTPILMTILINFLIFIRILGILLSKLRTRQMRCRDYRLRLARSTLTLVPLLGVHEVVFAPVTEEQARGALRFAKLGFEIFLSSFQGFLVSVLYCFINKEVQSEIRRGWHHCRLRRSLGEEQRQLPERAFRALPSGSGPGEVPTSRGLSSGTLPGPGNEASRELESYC
In words: [125I]-GIP binding (SPA), human GIP receptor. Particulars: read-out: hGIPR Ki, nM (SEM, n).

Assay [5] has as its target human GLP-1 receptor (GLP-1R) (Homo sapiens, UniProt P43220). The experiment in a line: cAMP pharmacological functional assay in presence of casein, hGLP-1R. The class given is cell-based. The following applies: HEK293 cells expressing hGLP-1R, 0.1% Casein, geometric mean; read-out: hGLP1R cAMP Rel EC50 nM (SEM, n).
For assay [6], the target named is T4, gastric inhibitory peptide receptor (GIPR) (Homo sapiens, UniProt P48546).
T4 sequence (P48546 22-466): T3 sequence (P48546 22-466)
In words: cAMP pharmacological functional assay in presence of casein, hGIPR. The class given is cell-based. Particulars: HEK293 cells expressing hGIPR, 0.1% Casein, geometric mean; read-out: hGIPR cAMP Rel EC50 nM (SEM, n).

Assay [7] addresses T1, human GLP-1R. The experiment in a line: [125I]-GLP-1 binding (SPA), human GLP-1 receptor. On the set-up: expressed in transfected cells; crude membranes. The following applies: read-out: hGLP1R Ki, (nM) (SEM, n). The gist of the method: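 Membranes: hypotonic lysis (50 mM Tris HCl, pH 7.5, protease inhibitors), Potter-Elvehjem homogenization, high-speed pellet (35000×g 1 h or 25000×g 30 min, 4° C.). Buffer: 25 mM HEPES pH 7.4, 2.5 mM CaCl2, 1 mM MgCl2. Four-parameter IC50 fit; Ki as geometric mean ± SEM.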

T1 sequence (P43220 24-463): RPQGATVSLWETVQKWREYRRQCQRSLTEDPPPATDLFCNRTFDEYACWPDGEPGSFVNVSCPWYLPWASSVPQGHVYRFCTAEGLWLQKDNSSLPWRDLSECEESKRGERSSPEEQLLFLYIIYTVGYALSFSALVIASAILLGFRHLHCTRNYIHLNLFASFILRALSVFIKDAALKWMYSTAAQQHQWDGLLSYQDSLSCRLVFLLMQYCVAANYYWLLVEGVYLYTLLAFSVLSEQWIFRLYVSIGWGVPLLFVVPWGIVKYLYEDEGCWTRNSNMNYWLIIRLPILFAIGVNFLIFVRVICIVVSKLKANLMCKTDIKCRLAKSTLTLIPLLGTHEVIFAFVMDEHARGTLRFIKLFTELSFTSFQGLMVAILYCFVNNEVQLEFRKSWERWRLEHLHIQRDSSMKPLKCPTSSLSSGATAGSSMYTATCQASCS
Sequence of human GLP-1 receptor (GLP-1R) (P43220 24-463): as above

As for `CC[C@H](C)[C@H](NC(=O)[C@H](CC(C)C)NC(=O)[C@](C)(Cc1ccc(O)cc1)NC(=O)[C@H](CCC(=O)O)NC(=O)[C@@H](NC(=O)[C@H](Cc1ccccc1)NC(=O)[C@H](C)NC(=O)C(C)(C)NC(=O)[C@H](CCC(N)=O)NC(=O)[C@H](C)NC(=O)[C@H](CCCCNC(=O)COCCOCCNC(=O)COCCOCCNC(=O)CC[C@H](NC(=O)CCCCCCCCCCCCCCCCCCC(=O)O)C(=O)O)NC(=O)[C@H](CCC(=O)O)NC(=O)[C@H](CC(=O)O)NC(=O)[C@H](CC(C)C)NC(=O)[C@](C)(CC(C)C)NC(=O)[C@@H](NC(=O)[C@H](CO)NC(=O)[C@H](Cc1ccc(O)cc1)NC(=O)[C@H](CC(=O)O)NC(=O)[C@H](CO)NC(=O)[C@@H](NC(=O)[C@H](Cc1ccccc1)NC(=O)[C@@H](NC(=O)CNC(=O)[C@H](CCC(=O)O)NC(=O)C(C)(C)NC(=O)[C@H](N)Cc1ccc(O)cc1)[C@@H](C)O)[C@@H](C)O)[C@@H](C)CC)[C@@H](C)CC)C(=O)N[C@@H](C)C(=O)NCC(=O)NCC(=O)N1CCC[C@H]1C(=O)N[C@@H](CO)C(=O)N[C@@H](CO)C(=O)NCC(=O)N[C@@H](C)C(=O)N1CCC[C@H]1C(=O)N1CCC[C@H]1C(=O)N1CCC[C@H]1C(=O)N[C@@H](CO)C(N)=O` [Example 381] (H-[dY][Aib]EGTFTSDYSI[αMeL]LDEK([AEEA-AEEA-γGlu-C20 diacid])AQ[Aib]AFIE[αMeY]LIAGGPSSGAPPPS-NH2), the EC50 in assay [1] (CHO-K1 cells, PathHunter β-arrestin-2 recruitment, 0.1% casein, read-out: hGLP1R B-Arrestin2 Rel EC50 uM (SEM, n)) was found to be 0.0155 µM; in assay [2], 0.273 nM. For the same compound, in assay [1] (normalized to GLP-1 maximum control), the “hGLP1R B-Arrestin2 % Top” value amounted to 25.8%.
On to `CC[C@H](C)[C@H](NC(=O)[C@H](CC(C)C)NC(=O)[C@H](Cc1ccc(O)cc1)NC(=O)[C@H](CCC(=O)O)NC(=O)[C@@H](NC(=O)[C@H](Cc1ccccc1)NC(=O)[C@H](C)NC(=O)C(C)(C)NC(=O)[C@H](CCC(N)=O)NC(=O)[C@H](C)NC(=O)[C@H](CCCCNC(=O)COCCOCCNC(=O)COCCOCCNC(=O)CC[C@H](NC(=O)CCCCCCCCCCCCCCCCC(=O)O)C(=O)O)NC(=O)[C@H](CCCCN)NC(=O)[C@H](CC(=O)O)NC(=O)[C@H](CC(C)C)NC(=O)[C@](C)(CC(C)C)NC(=O)[C@@H](NC(=O)[C@H](CO)NC(=O)[C@H](Cc1ccc(O)cc1)NC(=O)[C@H](CC(=O)O)NC(=O)[C@H](CO)NC(=O)[C@@H](NC(=O)[C@H](Cc1ccccc1)NC(=O)[C@@H](NC(=O)CNC(=O)[C@H](CCC(=O)O)NC(=O)C(C)(C)NC(=O)[C@@H](N)Cc1ccc(O)cc1)[C@@H](C)O)[C@@H](C)O)[C@@H](C)CC)[C@@H](C)CC)C(=O)N[C@@H](C)C(=O)NCC(=O)NCC(=O)N1CCC[C@H]1C(=O)N[C@@H](CO)C(=O)N[C@@H](CO)C(=O)NCC(N)=O` [Example 305] (H-Y[Aib]EGTFTSDYSI[αMeL]LDKK([AEEA-AEEA-γGlu-C18 diacid])AQ[Aib]AFIEYLIAGGPSSG-NH2), for which the Ki in assay [3] worked out at 352 nM; in assay [4] it was 0.025 nM; in assay [7] it was 0.83 nM. Further, the EC50 in assay [5] was determined as 0.107 nM; in assay [6], 0.0225 nM; in assay [2], 0.389 nM.
